What follows are compounds tested against Guanine nucleotide-binding protein G(o) subunit alpha (Homo sapiens, UniProt P09471) (assay: RGS16-Galphao interaction regulators, SAR follow-up, biochemical, multiplexed bead assay, additional SAR round (AID 2828)).
Chain of Guanine nucleotide-binding protein G(o) subunit alpha (P09471 whole entry): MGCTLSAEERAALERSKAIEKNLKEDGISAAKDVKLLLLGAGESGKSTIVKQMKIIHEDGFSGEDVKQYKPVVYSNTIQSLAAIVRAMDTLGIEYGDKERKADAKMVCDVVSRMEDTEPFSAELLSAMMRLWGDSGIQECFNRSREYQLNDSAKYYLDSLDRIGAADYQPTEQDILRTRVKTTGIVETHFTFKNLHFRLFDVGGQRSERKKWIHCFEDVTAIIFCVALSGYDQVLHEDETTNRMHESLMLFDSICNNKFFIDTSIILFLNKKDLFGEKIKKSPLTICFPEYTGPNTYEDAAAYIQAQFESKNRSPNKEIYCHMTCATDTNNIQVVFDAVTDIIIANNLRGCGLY

EC50, > 30 µM:
O=C(c1sc2cc([N+](=O)[O-])ccc2c1Cl)N1CCNCC1, O=C(NCCCN1CCOCC1)c1sc2cc([N+](=O)[O-])ccc2c1Cl [3-chloranyl-N-(3-morpholin-4-ylpropyl)-6-nitro-1-benzothiophene-2-carboxamide], NC(=O)c1sc2cc([N+](=O)[O-])ccc2c1Cl [KSC-1-100], O=C(NCCCn1ccnc1)c1sc2cc([N+](=O)[O-])ccc2c1Cl [3-chloro-N-[3-(1-imidazolyl)propyl]-6-nitro-1-benzothiophene-2-carboxamide], Cc1ccc2c(Cl)c(C(=O)NCCCN3CCOCC3)sc2c1 [KUC103874N]

From BindingDB's records for doi:10.7270/Q2XS5SVJ (Nmmlsc, 2010)
